Experimental data reported in patent US12605386B2, “Sapropterin formulation” (APR Applied Pharma Research SA, priority 2022, dated 2026).
Read-outs that look alike come from different tables or passages of the source.

What was measured:
[1] = powder and tablet formulations suspended in various foods and water at 20 mg/mL (62 mM); after one hour; cited from earlier work
[2] = HPLC analysis of sapropterin solutions in water; type: physicochemical
Method: Visual observations of degradation of sapropterin solutions were confirmed through HPLC analysis. The following methodology was used: Samples that were diluted to ca. 1 mM prior to analysis. HPLC Method • Column: Partisil […] SCX 250× (from […]) • Mode: isocratic • Mobile phase: KH2PO4 30 mM at pH 3.0 • Oven temperature: 30° C. • injection volume: 25 μL • flow: 1.5 mL/min (generated ca. 60 bar) • Detection: DAD 254-360 with acquisition at 254 HPLC System (VWR Hitachi) • VWR Hitachi L-2000 organizer • DAD: L2455 • Autosampler: L2200 • Pump: L2130 • Column oven: L2350 Preparation of Mobile Phase • 1) V (H2O)=500 mL • 2) m(KH2PO4)=2.04 g (MW=136.09 g/mol) • 3) To pH 3 with phosphoric acid diluted 50 fold with water (v/v) • Note: prior to dilution phosphoric acid stock was at 85% • Note2: 5-8 g of 1/50 diluted solution are required to drop pH to 3.0 Three solutions of sapropterin in water at 100 mM were submitted to HPLC analysis. Each solution was tested at a different time point one was tested when freshly prepared, one after one day and the other after 7 weeks old.

[3] = Peroxide degradation of sapropterin with HPLC analysis; type: physicochemical; details: peroxide degradation: 5 mL of 0.1% H2O2, 1.5 hours, room temperature
Method: A sample of sapropterin was subjected to peroxide degradation with 5 mL of 0.1% H2O2 for 1.5 hours at room temperature.
HPLC analysis of the resulting oxidative degradation of sapropterin was performed according to the procedure described below and the results are shown in Table 2.
• Column: YMC Pack ODS AQ (250×4.6) mm, […] • Buffer: potassium dihydrogen phosphate pH3.0 with orthophosphoric acid • Mobile Phase A: 100% Buffer • Mobile Phase B: acetonitrile:methanol (1:9) • Wavelength: 220 nm for Impurity A, C, D, E, G • Wavelength: 275 nm for Impurity F • Flow: 0.6 ml/min • Injection Volume: 5 μl • Column Temperature: 30° C. • Sample Compartment: 5° C. • Run Time: 45 min Preparation of Mobile Phase: • Mobile Phase A: 2.72 g of potassium dihydrogen phosphate was added to 1000 ml of water and dissolved. pH was adjusted to 3.0 using orthophosphoric acid. The solution was mixed and filtered through 0.45 μm nylon membrane filter and degassed. • Mobile Phase B: 900 ml of methanol and 100 ml of acetonitrile was dissolved, mixed, and degassed.
Preparation of 0.1N HCl: 8.5 ml of hydrochloric acid was added to 900 ml of water, diluted to 1000 ml with water, and then mixed.
Diluent: 2.72 g of potassium dihydrogen phosphate was added to 1000 ml of water and dissolved. pH was adjusted to 3.0 using orthophosphoric acid. 10 mg of ascorib acid was added, mixed, and then filtered through 0.45 μm nylon membrane filter and degassed.

[4] = cited from earlier work
[5] = Vegetable oil suspension stability study, water extraction and HPLC; type: physicochemical; details: oil free control; freshly prepared aqueous solutions
Method: A simple stability study was carried out to establish the stability potential of the formulations tested. The stability study was carried out for a month at room temperature as this would reflect the conditions under which the material would be stored.
The stability work was focused on vegetable oils. Food grade vegetable oils were tested and they were sourced from a supermarket and only opened before starting the stability work. Exploratory stability work was then carried out to establish the potential of liquid formulations for sunflower oil, olive oil, rapeseed oil and rice bran oil.
Stability was informally assessed by preparing 10% w/w sapropterin suspensions and storing at room temperature on a shelf away from direct sunlight. Individual aliquots were prepared at each time point. At each sampling point sapropterin was extracted from oil with water as set out below and the sample analysed by HPLC. Absence of degradation products was used to establish lack of oxidation. The HPLC method set out above was not validated for quantitative analysis. Instead, SPT peak size was also semi-quantitatively used to further corroborate absence of oxidation but this was carried out by simply overlaying traces (e.g. SPT peak size at day 0 vs day 7) rather than performing calibrations curves of SPT. […]
Samples were analysed at day 0, day 5, day 7, and/or day 31.

[6] = cited from earlier work; remark: listed apart in the source
[7] = Visual observation of unformulated SPT solutions; type: physicochemical; details: 100 mM solutions; yellow/orange colour developed overtime
Method: Stability over time of unformulated SPT solutions was initially investigated through visual observation of 100 mM solutions. The solutions were seen to be very unstable and a yellow/orange colour developed overtime, presumably due to the formation of oxidation sub-products.

[8] = 0.1 M phosphate buffer, pH 6.8, room temperature

Structure (SMILES): C[C@H](O)[C@H](O)[C@H]1CNc2nc(N)[nH]c(=O)c2N1 [Sapropterin, sapropterin]
- sapropterin degraded [1]: 3-7%
- time after which an oxidation sub-product peak became evident ([2]; 1 mM solution): 2 h
- oxidation product by HPLC ([2]; 100 mM in water, after 7 weeks): showed a peak at 4.2 min attributed to oxidation sub-products
- oxidation product by HPLC ([2]; 100 mM in water, after one day): showed a peak at 4.2 min attributed to oxidation sub-products
- oxidation product by HPLC ([2]; 100 mM in water, freshly prepared): did not show any oxidation product
- reduction in the SPT peak by oxidation ([2]; 100 mM in water, within a period of 24 h): not pronounced
- Impurities (% w/w): Impurity A [3]: 0.02 % w/w
- Impurities (% w/w): Impurity B [3]: 11.791 % w/w
- Impurities (% w/w): Impurity C [3]: 5.322 % w/w
- Impurities (% w/w): Impurity D [3]: 0.116 % w/w
- Impurities (% w/w): Impurity H [3]: 0.106 % w/w
- Impurities (% w/w): Unknown impurity @RRT 0.70 [3]: 0.191 % w/w
- Impurities (% w/w): Unknown impurity @RRT 0.85 [3]: 0.026 % w/w
- Impurities (% w/w): Unknown impurity @RRT 0.89 [3]: 0.010 % w/w
- Impurities (% w/w): Unknown impurity @RRT 0.94 [3]: 0.108 % w/w
- Impurities (% w/w): Unknown impurity @RRT 1.11 [3]: 0.015 % w/w
- Impurities (% w/w): Unknown impurity @RRT 1.41 [3]: 0.212 % w/w
- Impurities (% w/w): Unknown impurity @RRT 1.54 [3]: 0.022 % w/w
- Impurities (% w/w): Unknown impurity @RRT 1.63 [3]: 0.010 % w/w
- Impurities (% w/w): Unknown impurity @RRT 1.77 [3]: 0.007 % w/w
- Impurities (% w/w): Unknown impurity @RRT 2.08 [3]: 0.004 % w/w
- Impurities (% w/w): Unknown impurity @RRT 2.15 [3]: 0.007 % w/w
- Impurities (% w/w): Unknown impurity @RRT 2.24 [3]: 0.006 % w/w
- Impurities (% w/w): Unknown impurity @RRT 2.34 [3]: 0.095 % w/w
- major degradation products [3]: Impurities B and C
- degradation of solution in water ([4]; 0.1 mM, after 1 hour open at room temperature): about 25%
- degradation of solution in water ([4]; 0.1 mM, after 3 hours): more than 60%
- degradation of solution in water ([4]; 1 mM, after 1 hour open at room temperature): 2%
- degradation of solution in water ([4]; 1 mM, after 3 hours): 10%
- half-life [4, 8]: ~16 min
- time until completely destroyed [4, 8]: 90 min
- stability of solutions in 0.1 N HCl ([4]; −20° C.): stable for several weeks
- oxidation products by HPLC [5]: vestigial amounts of oxidation products
- pH of solution in water ([6]; 1 mM solution): 3.0
- pH of solution in water ([6]; 1 M solution): 0.45
- solubility in water [6]: freely soluble
- stability over time (visual observation) [7]: very unstable
